As a reminder, the melting point is the temperature of the solid-liquid transition.

From patent US8183262B2, “Pyridine derivatives as mGluR2 antagonists” (Hoffmann-La Roche Inc., priority 2007, dated 2012) come the findings set out here.

Molecules are shown by their SMILES.

Regarding `CCOc1cc(-c2cc(C(F)(F)F)nc(-c3nc(-c4ccc(S(N)(=O)=O)cc4)no3)n2)ccc1C(F)(F)F` [Example 89, 4-{5-[4-(3-Ethoxy-4-trifluoromethyl-phenyl)-6-trifluoromethyl-pyrimidin-2-yl]-[1,2,4]oxadiazol-3-yl}-benzenesulfonamide], the melting point is 250.5 °C.
To `CCOc1cc(-c2cc(C(F)(F)F)nc(-c3nc(-c4cccc(S(N)(=O)=O)c4)no3)n2)ccc1C(F)(F)F` [Example 91, 3-{5-[4-(3-Ethoxy-4-trifluoromethyl-phenyl)-6-trifluoromethyl-pyrimidin-2-yl]-[1,2,4]oxadiazol-3-yl}-benzenesulfonamide] belongs 227 °C.
On to `CCOc1cc(-c2cc(C(F)(F)F)nc(-c3ccnc(-c4ccc(N)nc4)c3)n2)ccc1C(F)(F)F` [Example 92, 4-[4-(3-Ethoxy-4-trifluoromethyl-phenyl)-6-trifluoromethyl-pyrimidin-2-yl]-[2,3′]bipyridinyl-6′-ylamine], for which the melting point amounted to 222 °C.
To `CCOc1cc(-c2cc(C(F)(F)F)nc(-c3cccc(-c4ccc(N)nc4)c3)n2)ccc1C(F)(F)F` [Example 93, 5-{3-[4-(3-Ethoxy-4-trifluoromethyl-phenyl)-6-trifluoromethyl-pyrimidin-2-yl]-phenyl}-pyridin-2-ylamine] belongs 208 °C.
To `Nc1ccc(-c2cn(-c3nc(-c4ccc(C(F)(F)F)c(F)c4)cc(C(F)(F)F)n3)cn2)cn1` [Example 94, 5-{1-[4-(3-Fluoro-4-trifluoromethyl-phenyl)-6-trifluoromethyl-pyrimidin-2-yl]-1H-imidazol-4-yl}-pyridin-2-ylamine] belongs 309 °C; to `CC(=O)Nc1ccc(-c2cn(-c3nc(-c4ccc(C(F)(F)F)cc4)cc(C(F)(F)F)n3)cn2)cn1` [Example 95, N-(5-{1-[4-Trifluoromethyl-6-(4-trifluoromethyl-phenyl)-pyrimidin-2-yl]-1H-imidazol-4-yl}-pyridin-2-yl)-acetamide], 314 °C; to `Nc1ccc(-c2cccc(-c3nc(-c4ccc(C(F)(F)F)c(F)c4)cc(C(F)(F)F)n3)c2)cn1` [Example 96, 5-{3-[4-(3-Fluoro-4-trifluoromethyl-phenyl)-6-trifluoromethyl-pyrimidin-2-yl]-phenyl}-pyridin-2-ylamine], 212 °C.
Then `Nc1ccc(-c2cccc(-c3nc(-c4ccc(Cl)c(Cl)c4)cc(C(F)(F)F)n3)c2)cn1` [Example 97, 5-{3-[4-(3,4-Dichloro-phenyl)-6-trifluoromethyl-pyrimidin-2-yl]-phenyl}-pyridin-2-ylamine], with 179 °C.
`NS(=O)(=O)c1ccc(-c2noc(-c3nc(-c4ccc(Cl)c(Cl)c4)cc(C(F)(F)F)n3)n2)cc1` [Example 98, 4-{5-[4-(3,4-Dichloro-phenyl)-6-trifluoromethyl-pyrimidin-2-yl]-[1,2,4]oxadiazol-3-yl}-benzenesulfonamide] returned a melting point of 302.5 °C.
Then `NS(=O)(=O)c1cccc(-c2noc(-c3nc(-c4ccc(Cl)c(Cl)c4)cc(C(F)(F)F)n3)n2)c1` [Example 99, 3-{5-[4-(3,4-Dichloro-phenyl)-6-trifluoromethyl-pyrimidin-2-yl]-[1,2,4]oxadiazol-3-yl}-benzenesulfonamide], with 258 °C.
To `Nc1ccc(-c2noc(-c3nc(-c4ccc(Cl)c(Cl)c4)cc(C(F)(F)F)n3)n2)cn1` [Example 100, 5-{5-[4-(3,4-Dichloro-phenyl)-6-trifluoromethyl-pyrimidin-2-yl]-[1,2,4]oxadiazol-3-yl}-pyridin-2-ylamine] belongs 227 °C; to `Nc1ccc(-c2nccc(-c3nc(-c4ccc(C(F)(F)F)cc4)cc(C(F)(F)F)n3)n2)cn1` [Example 101, 5-[6-Trifluoromethyl-4-(4-trifluoromethyl-phenyl)-[2,4′]bipyrimidinyl-2′-yl]-pyridin-2-ylamine], 236.5 °C; to `Nc1ccc(-c2cn(-c3nc(-c4ccc(Cl)c(Cl)c4)cc(C(F)(F)F)n3)cn2)cn1` [Example 102, 5-{1-[4-(3,4-Dichloro-phenyl)-6-trifluoromethyl-pyrimidin-2-yl]-1H-imidazol-4-yl}-pyridin-2-ylamine], 282.5 °C.
On to `Cc1cc(-c2cc(C(F)(F)F)nc(-n3cnc(-c4ccc(N)nc4)c3)n2)ccc1Cl` [Example 104, 5-{1-[4-(4-Chloro-3-methyl-phenyl)-6-trifluoromethyl-pyrimidin-2-yl]-1H-imidazol-4-yl}-pyridin-2-ylamine], for which the melting point was 276 °C.
To `Cc1cc(-c2cc(C(F)(F)F)nc(-c3cccc(-c4ccc(N)nc4)c3)n2)ccc1Cl` [Example 105, 5-{3-[4-(4-Chloro-3-methyl-phenyl)-6-trifluoromethyl-pyrimidin-2-yl]-phenyl}-pyridin-2-ylamine] belongs 168.5 °C.
Then `Cc1cc(-c2cc(C(F)(F)F)nc(-c3nc(-c4cccc(S(N)(=O)=O)c4)no3)n2)ccc1Cl` [Example 106, 3-{5-[4-(4-Chloro-3-methyl-phenyl)-6-trifluoromethyl-pyrimidin-2-yl]-[1,2,4]oxadiazol-3-yl}-benzenesulfonamide], with 246 °C; and `Cc1cc(-c2cc(C(F)(F)F)nc(-c3nc(-c4ccc(N)nc4)no3)n2)ccc1Cl` [Example 107, 5-{5-[4-(4-Chloro-3-methyl-phenyl)-6-trifluoromethyl-pyrimidin-2-yl]-[1,2,4]oxadiazol-3-yl}-pyridin-2-ylamine], with 199.5 °C.
Consider `Cc1cc(-c2cc(C(F)(F)F)nc(-c3ccnc(-c4ccc(N)nc4)c3)n2)ccc1Cl` [Example 108, 4-[4-(4-Chloro-3-methyl-phenyl)-6-trifluoromethyl-pyrimidin-2-yl]-[2,3′]bipyridinyl-6′-ylamine], for which the melting point was found to be 207 °C.
Then `Cc1cc(-c2ccc(Cl)cc2)nc(-c2cccc(-c3ccc(N)nc3)c2)n1` [Example 109, 5-{3-[4-(4-Chloro-phenyl)-6-methyl-pyrimidin-2-yl]-phenyl}-pyridin-2-ylamine], with 168.5 °C; and `Cc1cc(-c2ccc(Cl)cc2)nc(-c2cccc(-c3cnc(N)nc3)c2)n1` [Example 110, 5-{3-[4-(4-Chloro-phenyl)-6-methyl-pyrimidin-2-yl]-phenyl}-pyrimidin-2-ylamine], with 228 °C.
In the case of `Nc1ccc(-c2cn(-c3nc(-c4ccc(C(F)(F)F)cc4)cc(C(F)(F)F)n3)cn2)cc1` [Example 111, 4-{1-[4-Trifluoromethyl-6-(4-trifluoromethyl-phenyl)-pyrimidin-2-yl]-1H-imidazol-4-yl}-phenylamine], the melting point stood at 270 °C.
The compound `Cc1cc(-c2ccc(Cl)cc2)nc(-c2ccnc(-c3ccc(N)nc3)c2)n1` [Example 112, 4-[4-(4-Chloro-phenyl)-6-methyl-pyrimidin-2-yl]-[2,3′]bipyridinyl-6′-ylamine] showed a melting point of 199 °C.
To `Cc1cc(-c2ccc(C(F)(F)F)cc2)nc(-c2ccnc(-c3ccc(N)nc3)c2)n1` [Example 113, 4-[4-Methyl-6-(4-trifluoromethyl-phenyl)-pyrimidin-2-yl]-[2,3′]bipyridinyl-6′-ylamine] belongs 232 °C; to `Cc1cc(-c2ccc(C(F)(F)F)cc2)nc(-c2cccc(-c3cnc(N)nc3)c2)n1` [Example 115, 5-{3-[4-Methyl-6-(4-trifluoromethyl-phenyl)-pyrimidin-2-yl]-phenyl}-pyrimidin-2-ylamine], 290 °C.
In turn, `Cc1cc(-c2ccc(C(F)(F)F)cc2)nc(-c2cccc(-c3ccc(N)nc3)c2)n1` [Example 116, 5-{3-[4-Methyl-6-(4-trifluoromethyl-phenyl)-pyrimidin-2-yl]-phenyl}-pyridin-2-ylamine] showed a melting point of 224 °C.
Then `Nc1ccc(-c2cccc(-c3nc(-c4ccc(C(F)(F)F)cc4)cc(C(F)(F)F)n3)c2)cc1` [Example 117, 3′-[4-Trifluoromethyl-6-(4-trifluoromethyl-phenyl)-pyrimidin-2-yl]-biphenyl-4-ylamine], with 186 °C.
Then `Cc1cc(-c2ccc(C(F)(F)F)cc2)nc(-c2nc(-c3ccc(S(N)(=O)=O)cc3)no2)n1` [Example 118, 4-{5-[4-Methyl-6-(4-trifluoromethyl-phenyl)-pyrimidin-2-yl]-[1,2,4]oxadiazol-3-yl}-benzenesulfonamide], with 326 °C; and `Cc1cc(-c2cc(C(F)(F)F)nc(-c3cccc(-c4ccc(N)nc4)c3)n2)ccc1C(F)(F)F` [Example 119, 5-{3-[4-(3-Methyl-4-trifluoromethyl-phenyl)-6-trifluoromethyl-pyrimidin-2-yl]-phenyl}-pyridin-2-ylamine], with 207 °C.
Then `Cc1cc(-c2cc(C(F)(F)F)nc(-n3cnc(-c4ccc(N)nc4)c3)n2)ccc1C(F)(F)F` [Example 120, 5-{1-[4-(3-Methyl-4-trifluoromethyl-phenyl)-6-trifluoromethyl-pyrimidin-2-yl]-1H-imidazol-4-yl}-pyridin-2-ylamine], with 290 °C.
`Cc1cc(-c2cc(C(F)(F)F)nc(-c3ccnc(-c4ccc(N)nc4)c3)n2)ccc1C(F)(F)F` [Example 121, 4-[4-(3-Methyl-4-trifluoromethyl-phenyl)-6-trifluoromethyl-pyrimidin-2-yl]-[2,3′]bipyridinyl-6′-ylamine] had a melting point of 223 °C.
In turn, `Cc1cc(-c2ccc(C(F)(F)F)c(C)c2)nc(-n2cnc(-c3ccc(N)nc3)c2)n1` [Example 122, 5-{1-[4-Methyl-6-(3-methyl-4-trifluoromethyl-phenyl)-pyrimidin-2-yl]-1H-imidazol-4-yl}-pyridin-2-ylamine] showed a melting point of 247.5 °C.
Then `Cc1cc(-c2ccc(C(F)(F)F)c(C)c2)nc(-n2cnc(-c3cnc(N)nc3)c2)n1` [Example 123, 5-{1-[4-Methyl-6-(3-methyl-4-trifluoromethyl-phenyl)-pyrimidin-2-yl]-1H-imidazol-4-yl}-pyrimidin-2-ylamine], with 248 °C; and `Cc1cc(-c2cc(C(F)(F)F)nc(-c3cccc(-c4cnc(N)nc4)c3)n2)ccc1C(F)(F)F` [Example 124, 5-{3-[4-(3-Methyl-4-trifluoromethyl-phenyl)-6-trifluoromethyl-pyrimidin-2-yl]-phenyl}-pyrimidin-2-ylamine], with 244 °C.
